Assays:
mutant IDH1^R132H = mutant IDH1^R132H (Homo sapiens, UniProt O75874, R132H); assay: IDH1^R132H enzymatic assay (diaphorase/resazurin readout of NADPH); type: biochemical; conditions: for Inhibition ratio (%) 50 (μM): compound at 50 μM
Method: This assay added into a 384-well blank plate and then incubated at room temperature for 60 min. […] Curve fitting for dose response IC50 was done using GraphPad Prism.
These 12 ligands were submitted to determine the IC50.

[1] = tested on: advanced hematological malignancies; design: method as in Foran et al., 2019; conditions: clinic, ref Foran et al., 2019; cited from earlier work

Sequence of mutant IDH1^R132H (O75874 whole entry R132H): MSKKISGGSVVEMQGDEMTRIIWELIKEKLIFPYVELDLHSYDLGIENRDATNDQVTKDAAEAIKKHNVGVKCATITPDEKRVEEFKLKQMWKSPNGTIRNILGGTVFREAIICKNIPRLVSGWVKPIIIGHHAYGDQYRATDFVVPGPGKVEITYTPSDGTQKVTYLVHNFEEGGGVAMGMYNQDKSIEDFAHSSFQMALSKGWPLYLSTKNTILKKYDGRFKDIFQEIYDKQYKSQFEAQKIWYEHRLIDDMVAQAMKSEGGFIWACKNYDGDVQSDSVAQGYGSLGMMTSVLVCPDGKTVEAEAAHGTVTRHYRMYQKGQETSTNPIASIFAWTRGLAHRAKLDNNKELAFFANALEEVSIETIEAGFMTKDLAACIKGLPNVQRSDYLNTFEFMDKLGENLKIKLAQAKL

SMILES | IC50 (mutant IDH1^R132H) | Inhibition ratio (%) 50 (μM) (mutant IDH1^R132H) | total overall response rate [1]
O=C1CS[C@@H](c2cccc(NS(=O)(=O)c3ccc4ccccc4c3)c2)N1c1ccc(F)cc1 [V010-1281] | 50 ± 6.4 µM | 60.85±2.05% | –
N#Cc1ccnc(N2C(=O)CC[C@H]2C(=O)N(c2cncc(F)c2)[C@H](C(=O)NC2CC(F)(F)C2)c2ccccc2Cl)c1 [AG-120] | – | – | 42%
O=C(Cc1ccc(N(Cc2ccccc2)C(=O)c2cccc(F)c2)cc1)NCc1cccnc1 [V016-3750] | 42.9 ± 2.8 µM | 54.90±1.70% | –
O=C1C[C@H](C(=O)N(Cc2cccc3ccccc23)c2ccccn2)CN1Cc1ccccc1 [D491-0852] | 46.9 ± 6 µM | 58.00±0.60% | –
CCOC(=O)c1[nH]c(C)c(CN(Cc2ccccc2)C(=O)[C@@H](C)Oc2ccccc2)c1C [G798-0506] | 38 ± 2 µM | 61.15±6.15% | –
CCC[C@@H]1N=C2c3ccccc3N=C(S[C@@H](CC)C(=O)Nc3cccc(Cl)c3)N2C1=O [G568-0082] | 41.9 ± 8 µM | 54.30±4.30% | –
O=C1C[C@H](C(=O)N(CCc2ccccc2)Cc2ccccc2)CN1Cc1cccc(Br)c1 [V015-1671] | 23.8 ± 1.8 µM | 65.30±2.30% | –
CN(CC(=O)N1N=C(c2ccccc2Cl)C[C@H]1c1ccc2c(c1)OCO2)C(=O)C1CCCC1 [V025-9252] | 45.5 ± 3.1 µM | 59.15±3.75% | –
O=C(NCc1ccc(C(F)(F)F)cc1)c1nnn(-c2ccccc2Cl)c1-c1cccnc1 [L806-0255] | 28.3 ± 2.5 µM | 66.25±3.25% | –
COc1ccc(C(=O)[C@@H](Cn2cncn2)[C@H](Sc2ccccc2)c2ccccc2)cc1 [AQ-714/41674992] | 20.8 ± 4.2 µM | 73.30±1.90% | –
